The structures appear in SMILES notation.

The species named for experiment [1] is Homo sapiens. Briefly: Selectivity index, ratio of Ki for human recombinant 5-HT1A receptor to Ki for human recombinant 5-HT7 receptor.
Experiment [2] addresses T1, 5-hydroxytryptamine receptor 1A (Homo sapiens) (UniProt P08908).
T1 sequence (whole entry): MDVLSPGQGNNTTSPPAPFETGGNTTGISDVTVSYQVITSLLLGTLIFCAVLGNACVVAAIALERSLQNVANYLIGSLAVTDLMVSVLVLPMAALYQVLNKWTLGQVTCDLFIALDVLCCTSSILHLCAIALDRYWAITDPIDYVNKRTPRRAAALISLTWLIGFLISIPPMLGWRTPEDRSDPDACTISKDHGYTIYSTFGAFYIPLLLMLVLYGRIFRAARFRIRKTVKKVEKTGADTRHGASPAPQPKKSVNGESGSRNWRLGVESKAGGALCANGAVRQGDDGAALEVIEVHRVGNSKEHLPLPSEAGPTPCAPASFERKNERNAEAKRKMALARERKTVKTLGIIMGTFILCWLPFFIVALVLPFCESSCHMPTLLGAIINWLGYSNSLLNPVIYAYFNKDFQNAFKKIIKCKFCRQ
Put plainly: Potency index, ratio of Ki for N-Methyllaurotetanine to Ki for test compound against human recombinant 5-HT1A receptor expressed in CHO cell membranes by radioligand binding assay.

Experiment [3] has as its target T2, 5-hydroxytryptamine receptor 1A (Homo sapiens, UniProt P08908).
T2 sequence (P08908 whole entry): T1 sequence (whole entry)
Briefly: Displacement of [3H]Way100635 from human recombinant 5-HT1A receptor expressed in CHO cell membranes by radioligand binding assay.

Experiment [4] is filed under the species Homo sapiens. Put plainly: Selectivity index, ratio of Ki for human recombinant 5-HT2A receptor to Ki for human recombinant 5-HT7 receptor.
The target of experiment [5] is 5-hydroxytryptamine receptor 7 (Homo sapiens, UniProt P34969). Briefly: Displacement of [3H]LSD from human recombinant 5-HT7 receptor expressed in HEK cell membranes by radioligand binding assay. Details: species or system HEK293. In general terms: Displacement assays read how much labelled ligand stays bound in the presence of the test substance.
For experiment [6], the target named is 5-hydroxytryptamine receptor 2A (Homo sapiens, UniProt P28223). Briefly: Displacement of [3H]ketanserin from human recombinant 5-HT2A receptor expressed in HEKT cell membranes by radioligand binding assay. The format is cell-based.
5-hydroxytryptamine receptor 2A, sequence (P28223 whole entry): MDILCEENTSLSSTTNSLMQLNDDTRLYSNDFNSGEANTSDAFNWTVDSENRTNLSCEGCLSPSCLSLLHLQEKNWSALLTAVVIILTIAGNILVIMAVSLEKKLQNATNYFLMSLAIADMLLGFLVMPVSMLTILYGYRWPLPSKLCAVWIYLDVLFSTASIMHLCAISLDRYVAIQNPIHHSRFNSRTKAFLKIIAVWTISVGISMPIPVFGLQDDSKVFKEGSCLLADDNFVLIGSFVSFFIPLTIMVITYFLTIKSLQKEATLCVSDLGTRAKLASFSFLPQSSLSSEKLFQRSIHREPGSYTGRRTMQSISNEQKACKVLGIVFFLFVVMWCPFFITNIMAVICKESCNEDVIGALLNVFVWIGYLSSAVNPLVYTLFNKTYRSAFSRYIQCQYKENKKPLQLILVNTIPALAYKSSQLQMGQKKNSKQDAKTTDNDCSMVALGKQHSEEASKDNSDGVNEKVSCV

5-hydroxytryptamine receptor 7, sequence (P34969 whole entry): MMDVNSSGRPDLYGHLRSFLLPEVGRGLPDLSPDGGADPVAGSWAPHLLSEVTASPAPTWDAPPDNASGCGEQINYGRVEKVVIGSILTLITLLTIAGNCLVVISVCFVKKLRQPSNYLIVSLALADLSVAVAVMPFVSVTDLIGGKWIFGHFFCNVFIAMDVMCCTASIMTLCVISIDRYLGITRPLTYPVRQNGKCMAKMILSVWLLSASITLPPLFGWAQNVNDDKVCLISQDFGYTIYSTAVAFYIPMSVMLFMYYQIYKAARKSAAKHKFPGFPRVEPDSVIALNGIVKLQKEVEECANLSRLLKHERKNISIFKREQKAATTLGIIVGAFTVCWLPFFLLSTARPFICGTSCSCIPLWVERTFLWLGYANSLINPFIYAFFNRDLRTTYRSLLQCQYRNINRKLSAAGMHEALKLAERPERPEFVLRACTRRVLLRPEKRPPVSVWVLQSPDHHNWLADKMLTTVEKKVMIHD

As for `CCCC(C)Oc1cc2c(cc1OC)-c1c(OC)c(OC)cc3c1[C@H](C2)N(C)CC3` (stereo not given in full), the Ratio Ki in the experiment listed under Homo sapiens [1] is 5; in experiment [2], below 3; in the experiment listed under Homo sapiens [4], 5. For the same compound, the results for the inhibition constant Ki in experiment [3], in experiment [5] and in experiment [6] were 117 nM, 24 nM and 244 nM, respectively.
With `CCCCC(C)Oc1cc2c(cc1OC)-c1c(OC)c(OC)cc3c1[C@H](C2)N(C)CC3` (stereo not given in full), the figures for the Ratio Ki (in the experiment filed under Homo sapiens [1]; in experiment [2]; in the experiment filed under Homo sapiens [4]) were 4, below 3 and 12, respectively. The results for the Ki in experiment [3], in experiment [5] and in experiment [6] were 152 nM, 38 nM and 446 nM, respectively.
Regarding `CCC(C)Oc1cc2c(cc1OC)-c1c(OC)c(OC)cc3c1[C@H](C2)N(C)CC3` (stereo not given in full), the Ratio Ki in the experiment listed under Homo sapiens [1] is 7; in experiment [2], below 3; in the experiment listed under Homo sapiens [4], 7. For the same compound, the Ki in experiment [3] came out at 244 nM; in experiment [5] it was 34 nM; in experiment [6], 377 nM.
On to `CCOc1cc2c(cc1OC)-c1c(OC)c(OC)cc3c1[C@H](C2)N(C)CC3`, for which the Ratio Ki worked out at 7 in the experiment filed under Homo sapiens [1] and 12 in the experiment listed under Homo sapiens [4]. For the same compound, the results for the inhibition constant (Ki) in experiment [3], in experiment [5] and in experiment [6] were 506 nM, 69 nM and 818 nM, respectively.
For `COc1cc2c(cc1OC(C)C)C[C@H]1c3c(cc(OC)c(OC)c3-2)CCN1C`, in that order: 20, 27, 563 nM, 28 nM and 750 nM.
For `COc1cc2c(cc1OC)-c1c(OC)c(OC)cc3c1[C@H](C2)N(C)CC3` [GLAUCINE], in that order: 4, 22, 171 nM, 43 nM and 966 nM.
As to `CCCCCOc1cc2c(cc1OC)-c1c(OC)c(OC)cc3c1[C@H](C2)N(C)CC3`, the Ratio Ki in the experiment listed under Homo sapiens [1] worked out at 7; in the experiment listed under Homo sapiens [4] it was 10. Also, the figures for the Ki in experiment [3], in experiment [5] and in experiment [6] were 179 nM, 24 nM and 239 nM, respectively.
The matching figures for `CCCCOc1cc2c(cc1OC)-c1c(OC)c(OC)cc3c1[C@H](C2)N(C)CC3`: 10, 18, 153 nM, 15 nM and 268 nM.
As to `COc1cc2c(cc1OCc1ccc(Br)cc1)C[C@H]1c3c(cc(OC)c(OC)c3-2)CCN1C`, the Ratio Ki in the experiment filed under Homo sapiens [1] was determined as 2; in experiment [2] it was 3; in the experiment listed under Homo sapiens [4], 8. In addition, the Ki in experiment [3] came out at 102 nM; in experiment [5] it was 54 nM; in experiment [6], 418 nM.
For `C=CCOc1cc2c(cc1OC)-c1c(OC)c(OC)cc3c1[C@H](C2)N(C)CC3`, the Ratio Ki in the experiment listed under Homo sapiens [1] and in the experiment filed under Homo sapiens [4] was 18 each time. In addition, the Ki was 361 nM in experiment [3], 20 nM in experiment [5] and 383 nM in experiment [6].
For the compound `COc1cc2c(cc1OCCF)C[C@H]1c3c(cc(OC)c(OC)c3-2)CCN1C`, the values for the Ratio Ki in the experiment filed under Homo sapiens [1] and in the experiment filed under Homo sapiens [4] were 16 and 22, respectively. The Ki in experiment [3] amounted to 845 nM; in experiment [5], 52 nM; in experiment [6], 1160 nM.
As to `COc1cc2c(cc1OC1CCCCC1)C[C@H]1c3c(cc(OC)c(OC)c3-2)CCN1C`, the Ratio Ki is 3 in the experiment listed under Homo sapiens [1], below 3 in experiment [2] and 11 in the experiment filed under Homo sapiens [4]. Also, the Ki turned out to be 163 nM in experiment [3], 50 nM in experiment [5] and 570 nM in experiment [6].
Turning to `COc1cc2c(cc1OCc1ccccc1)C[C@H]1c3c(cc(OC)c(OC)c3-2)CCN1C`, the Ratio Ki is 4 in the experiment listed under Homo sapiens [1], 3 in experiment [2] and 9 in the experiment listed under Homo sapiens [4]. For the same compound, the values for the Ki in experiment [3], in experiment [5] and in experiment [6] were 92 nM, 23 nM and 216 nM, respectively.
Turning to `COc1cc2c(cc1OCC1CC1)C[C@H]1c3c(cc(OC)c(OC)c3-2)CCN1C`, the Ratio Ki in the experiment filed under Homo sapiens [1] came out at 10. In addition, the Ki in experiment [3] was 224 nM; in experiment [5], 22 nM; in experiment [6], 582 nM.
Take `CCCCCCOc1cc2c(cc1OC)-c1c(OC)c(OC)cc3c1[C@H](C2)N(C)CC3`: the values for the Ratio Ki in the experiment listed under Homo sapiens [1] and in the experiment listed under Homo sapiens [4] were 5 and 10, respectively. Moreover, the inhibitory constant (Ki) in experiment [3] is 273 nM; in experiment [5] it was 58 nM; in experiment [6] it was 570 nM.

The Ki is a dissociation constant, usually derived from enzyme kinetics or from competition with a known ligand.
